The target in one test is T1, human CB2 receptors (Homo sapiens, UniProt P34972).
T1 construct: expressed in transfected cells; host or cells: HEK293
As to the kind of experiment: human CB2 radioligand binding assay ([3H]CP 55,940 competition). As to conditions: HEK293 membranes, 0.5 nM [3H]CP 55,940. On the procedure:
(§1) The CB1 and CB2 radioligand binding assays described herein are utilized to ascertain the affinity of compounds of the present application for binding to CB2 relative to CB1 receptors.
HEK293 cells stably expressing human CB2 receptors were grown until a confluent monolayer was formed. Briefly, the cells were harvested and homogenized in TE buffer (50 mM Tris-HCl, 1 mM MgCl2, and 1 mM EDTA) using a polytron for 2×10 second bursts in the presence of protease inhibitors, followed by centrifugation at 45,000×g for 20 minutes. The final membrane pellet was re-homogenized in storage buffer (50 mM Tris-HCl, 1 mM MgCl2, and 1 mM EDTA and 10% sucrose) and frozen at −78° C. until used. Saturation binding reactions were initiated by the addition of membrane preparation (protein concentration of 5 μg/well for human CB2) into wells of a deep well plate containing [^3H]CP 55,940 (120 Ci/mmol, a nonselective CB agonist commercially available from Tocris) in assay buffer (50 mM Tris, 2.5 mM EDTA, 5 mM MgCl2, and 0.5 mg/mL fatty acid free BSA, pH 7.4). After 90 min incubation at 30° C., binding reaction was terminated by the addition of 300 μL/well of cold assay buffer followed by rapid vacuum filtration through a UniFilter-96 GF/C filter plates (pre-soaked in 1 mg/mL BSA for 2 hours). The bound activity was counted in a TopCount using Microscint-20. Saturation experiments were conducted with twelve concentrations of [^3H]CP 55,940 ranging from 0.01 to 8 nM. Competition experiments were conducted with 0.5 nM [^3H]CP 55,940 and five concentrations (0.01 nM to 10 μM) of displacing ligands. The addition of 10 μM unlabeled CP 55,940 (Tocris, Ellisville, Mo.) was used to assess nonspecific binding.

In the next test the target is T2, rat CB2 (Rattus norvegicus, UniProt Q9QZN9).
T2 sequence (Q9QZN9 1-360): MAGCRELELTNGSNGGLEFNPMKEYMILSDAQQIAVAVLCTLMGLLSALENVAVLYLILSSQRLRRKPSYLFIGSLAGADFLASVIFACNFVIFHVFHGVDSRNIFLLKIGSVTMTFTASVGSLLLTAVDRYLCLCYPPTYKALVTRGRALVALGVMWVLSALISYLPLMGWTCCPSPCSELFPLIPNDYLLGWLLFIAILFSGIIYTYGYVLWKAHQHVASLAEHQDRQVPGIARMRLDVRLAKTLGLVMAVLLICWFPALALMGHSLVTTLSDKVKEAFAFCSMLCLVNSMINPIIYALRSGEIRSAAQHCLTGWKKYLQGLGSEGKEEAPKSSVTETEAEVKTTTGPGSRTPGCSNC
As to the kind of experiment: rat CB2 radioligand binding assay ([3H]CP 55,940 competition). Further details: expressed in transfected cells; host or cells: HEK293. Particulars: HEK293 membranes, 0.5 nM [3H]CP 55,940. As for the experimental part: as §1
HEK293 cells stably expressing rat CB2 receptors were grown until a confluent monolayer was formed. Briefly, the cells were harvested and homogenized in TE buffer (50 mM Tris-HCl, 1 mM MgCl2, and 1 mM EDTA) using a polytron for 2×10 second bursts in the presence of protease inhibitors, followed by centrifugation at 45,000×g for 20 minutes. The final membrane pellet was re-homogenized in storage buffer (50 mM Tris-HCl, 1 mM MgCl2, and 1 mM EDTA and 10% sucrose) and frozen at −78° C. until used. Saturation binding reactions were initiated by the addition of membrane preparation (protein concentration of 20 μg/well for rat CB2) into wells of a deep well plate containing [^3H]CP 55,940 (120 Ci/mmol, a nonselective CB agonist commercially available from Tocris) in assay buffer (50 mM Tris, 2.5 mM EDTA, 5 mM MgCl2, and 0.5 mg/mL fatty acid free BSA, pH 7.4). After 45 min incubation at 30° C., binding reaction was terminated by the addition of […] of cold assay buffer followed by rapid vacuum filtration through a UniFilter-96 GF/C filter plates (pre-soaked in 1 mg/mL BSA for 2 hours). The bound activity was counted in a TopCount using Microscint-20. Saturation experiments were conducted with twelve concentrations of [^3H]CP 55,940 ranging from 0.01 to 8 nM. Competition experiments were conducted with 0.5 nM [^3H]CP 55,940 and five concentrations of displacing ligands selected from the range of 0.01 nM to 10 μM. The addition of 10 μM unlabeled CP 55,940 (Tocris, Ellisville, Mo.) was used to assess nonspecific binding.

Where two headings read alike, the source gives them in different places.

T1 sequence (P34972 whole entry): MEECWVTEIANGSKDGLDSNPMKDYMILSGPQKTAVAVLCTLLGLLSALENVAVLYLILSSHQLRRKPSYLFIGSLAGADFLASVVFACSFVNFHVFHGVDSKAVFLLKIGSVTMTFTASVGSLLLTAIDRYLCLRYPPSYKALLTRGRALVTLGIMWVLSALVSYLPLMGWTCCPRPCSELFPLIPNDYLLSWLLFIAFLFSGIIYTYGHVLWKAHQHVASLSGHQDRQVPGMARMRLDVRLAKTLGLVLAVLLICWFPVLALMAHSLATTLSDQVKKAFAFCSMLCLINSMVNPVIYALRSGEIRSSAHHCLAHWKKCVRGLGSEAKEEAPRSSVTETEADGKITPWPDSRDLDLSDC

The Ki is the dissociation constant of the complex between target and ligand, obtained from inhibition or displacement. With `CCCCn1/c(=N/C(=O)c2cc([N+](=O)[O-])ccc2OCC(C)(C)O)cc(C(C)(C)C)n1C` [Example 138, N-[(3E)-2-butyl-5-tert-butyl-1-methyl-1,2-dihydro-3H-pyrazol-3-ylidene]-2-(2-hydroxy-2-methylpropoxy)-5-nitrobenzamide], the Ki on human CB2 receptors (human CB2 (Ki, nM)) amounted to 1.6 nM; at rat CB2 (rat CB2 (Ki, nM)), 19 nM.

As for `Cn1c(C(C)(C)C)c/c(=N\C(=O)c2cc(C(F)(F)F)ccc2OCC2CN(S(C)(=O)=O)C2)n1C[C@H]1CCCO1` [Example 54, N-{(3E)-5-tert-butyl-1-methyl-2-[(2R)-tetrahydrofuran-2-ylmethyl]-1,2-dihydro-3H-pyrazol-3-ylidene}-2-{[1-(methylsulfonyl)azetidin-3-yl]methoxy}-5-(trifluoromethyl)benzamide], the Ki worked out at 192 nM at human CB2 receptors (read-out: human CB2 (Ki)) and 71 nM at rat CB2 (rat CB2 (Ki, nM)).

Take `CC(=O)NCCOc1ccc(C(F)(F)F)cc1C(=O)/N=c1\cc(C(C)(C)C)n(C)n1CC1CCC1` [Example 130, 2-[2-(acetylamino)ethoxy]-N-[(3E)-5-tert-butyl-2-(cyclobutylmethyl)-1-methyl-1,2-dihydro-3H-pyrazol-3-ylidene]-5-(trifluoromethyl)benzamide]: the Ki was 5 nM at human CB2 receptors (human CB2 (Ki, nM)) and 2.9 nM on rat CB2 (rat CB2 (Ki, nM)).

In the case of `Cn1c(C(C)(C)C)c/c(=N\C(=O)c2cc(C(F)(F)F)ccc2OCC(C)(C)O)n1CCCC(F)(F)F` [Example 135, N-[(3E)-5-tert-butyl-1-methyl-2-(4,4,4-trifluorobutyl)-1,2-dihydro-3H-pyrazol-3-ylidene]-2-(2-hydroxy-2-methylpropoxy)-5-(trifluoromethyl)benzamide], the Ki is 23 nM on human CB2 receptors (human CB2 (Ki, nM)) and 5.5 nM on rat CB2 (rat CB2 (Ki, nM)).

For `Cn1c(C(C)(C)C)c/c(=N\C(=O)c2cc(C(F)(F)F)ccc2OC[C@@H](O)C(C)(C)C)n1C[C@H]1CCCO1` [Example 112, N-{(3E)-5-tert-butyl-1-methyl-2-[(2R)-tetrahydrofuran-2-ylmethyl]-1,2-dihydro-3H-pyrazol-3-ylidene}-2-{[(2S)-2-hydroxy-3,3-dimethylbutyl]oxy}-5-(trifluoromethyl)benzamide], the inhibitory constant (Ki) at human CB2 receptors (human CB2 (Ki, nM)) amounted to 6.7 nM; on rat CB2 (rat CB2 (Ki, nM)), 1.9 nM.

In the case of `C/C(COc1ccc(C(F)(F)F)cc1C(=O)/N=c1\cc(C(C)(C)C)n(C)n1C[C@H]1CCCO1)=N\OC1CCCCO1` (stereo partly shown) [Example 79], the Ki was over 1000 nM on human CB2 receptors (read-out: human CB2 (Ki)) and 128 nM on rat CB2 (read-out: rat CB2 (Ki)).

Take `Cn1c(C(C)(C)C)c/c(=N\C(=O)c2cc(C(F)(F)F)ccc2OC[C@@H](O)CNC(C)(C)C)n1C[C@H]1CCCO1` [Example 105, 2-{[(2S)-3-(tert-butylamino)-2-hydroxypropyl]oxy}-N-{(3E)-5-tert-butyl-1-methyl-2-[(2R)-tetrahydrofuran-2-ylmethyl]-1,2-dihydro-3H-pyrazol-3-ylidene}-5-(trifluoromethyl)benzamide]: the Ki is over 1000 nM at human CB2 receptors (read-out: human CB2 (Ki)) and 406 nM at rat CB2 (read-out: rat CB2 (Ki)).

Take `Cn1c(C(C)(C)C)c/c(=N\C(=O)c2cc(C(F)(F)F)ccc2OCc2ccccn2)n1C[C@H]1CCCO1` [Example 38, N-{(3E)-5-tert-butyl-1-methyl-2-[(2R)-tetrahydrofuran-2-ylmethyl]-1,2-dihydro-3H-pyrazol-3-ylidene}-2-(pyridin-2-ylmethoxy)-5-(trifluoromethyl)benzamide]: the inhibition constant (Ki) is over 1000 nM at human CB2 receptors (read-out: human CB2 (Ki)) and 26 nM on rat CB2 (rat CB2 (Ki, nM)).

With `CN(C[C@@H]1CCCO1)c1ccc(C(F)(F)F)cc1C(=O)/N=c1\cc(C(C)(C)C)n(C)n1C[C@H]1CCCO1` [Example 26, N-{(3E)-5-tert-butyl-1-methyl-2-[(2R)-tetrahydrofuran-2-ylmethyl-]-1,2-dihydro-3H-pyrazol-3-ylidene}-2-{methyl[(2S)-tetrahydrofuran-2-ylmethyl]amino}-5-(trifluoromethyl)benzamide], the Ki on human CB2 receptors (human CB2 (Ki, nM)) is over 1000 nM; on rat CB2 (rat CB2 (Ki, nM)), 343 nM.

In the case of `CC[C@H](O)COc1ccc(C(F)(F)F)cc1C(=O)/N=c1\cc(C(C)(C)C)n(C)n1C[C@H]1CCCO1` [Example 109, N-{(3E)-5-tert-butyl-1-methyl-2-[(2R)-tetrahydrofuran-2-ylmethyl]-1,2-dihydro-3H-pyrazol-3-ylidene}-2-{[(2S)-2-hydroxybutyl]oxy}-5-(trifluoromethyl)benzamide], the Ki is 1.3 nM on human CB2 receptors (human CB2 (Ki, nM)) and 1.2 nM at rat CB2 (rat CB2 (Ki, nM)).

Regarding `CCCCn1/c(=N/C(=O)c2cc(C#N)ccc2OCC(C)(C)O)cc(C(C)(C)C)n1C` [Example 108, N-[(3E)-2-butyl-5-tert-butyl-1-methyl-1,2-dihydro-3H-pyrazol-3-ylidene]-5-cyano-2-(2-hydroxy-2-methylpropoxy)benzamide], the Ki at human CB2 receptors (read-out: human CB2 (Ki)) is over 1000 nM; on rat CB2 (read-out: rat CB2 (Ki)) it was 288 nM.

With `CCCn1/c(=N/C(=O)c2cc(C(F)(F)F)ccc2OCC(C)(C)O)cc(C(C)(C)C)n1C` [Example 125, N-[(3E)-5-tert-butyl-1-methyl-2-propyl-1,2-dihydro-3H-pyrazol-3-ylidene]-2-(2-hydroxy-2-methylpropoxy)-5-(trifluoromethyl)benzamide], the Ki on human CB2 receptors (read-out: human CB2 (Ki)) stood at 211 nM; at rat CB2 (rat CB2 (Ki, nM)) it was 86 nM.

With `CC(C)c1c/c(=N\C(=O)c2cc(C(F)(F)F)ccc2OCC(C)(C)O)n(CC2CCCC2)n1C` [Example 114, N-[(3E)-2-(cyclopentylmethyl)-5-isopropyl-1-methyl-1,2-dihydro-3H-pyrazol-3-ylidene]-2-(2-hydroxy-2-methylpropoxy)-5-(trifluoromethyl)benzamide], the Ki was found to be 129 nM on human CB2 receptors (read-out: human CB2 (Ki)) and 35 nM on rat CB2 (rat CB2 (Ki, nM)).

In the case of `Cn1c(C(C)(C)C)c/c(=N\C(=O)c2cc(Br)ccc2OCC(C)(C)O)n1C[C@H]1CCCO1` [Example 128, 5-bromo-N-{(3E)-5-tert-butyl-1-methyl-2-[(2R)-tetrahydrofuran-2-ylmethyl]-1,2-dihydro-3H-pyrazol-3-ylidene}-2-(2-hydroxy-2-methylpropoxy)benzamide], the inhibition constant (Ki) came to 15 nM on human CB2 receptors (human CB2 (Ki, nM)) and 4.9 nM on rat CB2 (rat CB2 (Ki, nM)).

Regarding `CN1CCC[C@H]1COc1ccc(C(F)(F)F)cc1C(=O)/N=c1\ccc(C(C)(C)C)cn1C[C@H]1CCCO1` [Example 59, N-[(2E)-5-tert-butyl-1-[(2R)-tetrahydrofuran-2-ylmethyl]pyridin-2(1H)-ylidene]-2-{[(2S)-1-methylpyrrolidin-2-yl]methoxy}-5-(trifluoromethyl)benzamide], the Ki at human CB2 receptors (human CB2 (Ki, nM)) was 294 nM; on rat CB2 (rat CB2 (Ki, nM)), 69 nM.

Take `C[C@H](O)COc1ccc(C(F)(F)F)cc1C(=O)/N=c1\cc(C(C)(C)C)n(C)n1C[C@H]1CCCO1` [Example 98, N-{(3E)-5-tert-butyl-1-methyl-2-[(2R)-tetrahydrofuran-2-ylmethyl]-1,2-dihydro-3 H-pyrazol-3-ylidene}-2-{[(2S)-2-hydroxypropyl]oxy}-5-(trifluoromethyl)benzamide]: the Ki at human CB2 receptors (human CB2 (Ki, nM)) stood at 4.6 nM; on rat CB2 (rat CB2 (Ki, nM)) it was 6.6 nM.

On to `CCCCn1ccc(C(C)(C)C)c/c1=N\C(=O)c1cc(C(F)(F)F)ccc1OCC(C)(C)O` [Example 92, N-[(2E)-1-butyl-4-tert-butylpyridin-2(1H)-ylidene]-2-(2-hydroxy-2-methylpropoxy)-5-(trifluoromethyl)benzamide], for which the Ki turned out to be 73 nM on human CB2 receptors (human CB2 (Ki, nM)) and 47 nM on rat CB2 (rat CB2 (Ki, nM)).

(Values after patent US8188135B2, “Compounds as cannabinoid receptor ligands” (priority 2008, dated 2012).)
